Results as given in patent publication US20240116951A1, “HETEROCYCLIC COMPOUNDS AND USES THEREOF” (Kumquat Biosciences Inc., priority 2022, published 2024).

Experiments:
Assay type in all cases: binding
KRAS G12D = target: T1, KRAS G12D (Homo sapiens, UniProt P01116, G12D); experiment: HTRF assay of K-Ras G12D interaction with SOS1 (PPI-HTRF); details: HTRF, 5 nM KRAS G12D; read-out: PPI-HTRF-5 nM KRAS G12D
T1 construct: made in house; host or cells: E. coli, e.g. BL21 (DE3)
Excerpt: (§1) This assay can be also used to assess a selective inhibition or reduction of signaling output of a mutant Ras protein relative to a wildtype, or relative to a different mutant Ras protein. For example, the equilibrium interaction of wildtype Kras or K-Ras mutant (e.g., wildtype or a mutant thereof including those mentioned in Example 4) with SOS1 (e.g., hSOS1) can be assessed as a proxy or an indication for a subject compound's ability to bind and inhibit Ras protein. HTRF assay detects from (i) a fluorescence resonance energy transfer (FRET) donor (e.g., antiGST-Europium) that is bound to GST-tagged K-Ras mutant to (ii) a FRET acceptor (e.g., anti-6His-XL665) bound to a His-tagged hSOS1.
(§2) The assay buffer can contain ˜5 mM HEPES pH 7.4, ˜150 mM NaCl, ˜1 mM DTT, 0.05% BSA and 0.0025% (v/v) Igepal. A Ras working solution is prepared in an assay buffer containing typically a suitable amount of the protein construct (e.g., GST-tagged K-Ras mutant) and the FRET donor (e.g., antiGST-Eu(K) from Cisbio, France). A SOS1 working solution is prepared in an assay buffer containing suitable amount of the protein construct (e.g., His-hSOS1) and the FRET acceptor (e.g., anti-6His-XL665 from Cisbio, France). A suitable amount of the protein construct will depend on the range of activity or range of IC50 values being detected or under investigation. For detecting IC50 within a range of 500 nM, the protein constructs of the same range of molarity can be utilized. […] A fixed volume of DMSO with or without test compound is transferred into a 384-well plate. Ras working solution is added to all wells of the test plate. SOS1 working solution is added to all wells except for those that are subsequently filled the inhibitor control solution. Upon incubation for about 10 minutes or longer, the fluorescence is measured with a M1000Pro plate reader (Tecan) using HTRF detection (excitation 337 nm, emission 1: 620 nm, emission 2: 665 nm). Compounds are tested in duplicates at different concentrations (for example, 10 μM, 2.5 μM, 0.63 μM, 0.16 μM, 0.04 μM, 0.01 μM test compound). The ratiometric data (i.e., emission 2 divided by emission 1) is used to calculate IC50 values against Ras using GraphPad Prism (GraphPad software). Following this general procedure, samples were tested with or without a subject compound disclosed herein including compounds exemplified in Table 1 to assess their abilities to inhibit a mutant K-Ras relative to another mutant K-Ras or wildtype K-Ras. Signaling output measured in terms of IC50 values can be obtained, a ratio of IC50 against one mutant relative to another mutant can be calculated. For instance, a selective reduction of K-Ras G12D signaling output can be evidenced by a ratio greater than one. In particular, a selective reduction of K-Ras G12D signaling relative to K-Ras WT signaling is evidenced as the ratio of IC50 (against K-Ras WT) to IC50 (against K-Ras G12D) is greater than 1.

KRAS G12S = target: T2, KRAS G12S (Homo sapiens, UniProt P01116, G12S); experiment: HTRF assay of K-Ras G12S interaction with SOS1 (PPI-HTRF); details: 5 nM KRAS G12S, read-out: PPI-HTRF-5 nM KRAS G12S
T2 construct: made in house; host or cells: E. coli, e.g. BL21 (DE3)
T2 sequence (P01116 1-188 isoform P01116-2 G12S): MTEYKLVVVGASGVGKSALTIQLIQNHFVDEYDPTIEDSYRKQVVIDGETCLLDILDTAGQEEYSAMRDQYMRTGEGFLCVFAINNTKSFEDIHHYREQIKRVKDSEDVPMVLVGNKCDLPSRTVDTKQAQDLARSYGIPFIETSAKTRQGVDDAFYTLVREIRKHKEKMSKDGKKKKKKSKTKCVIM
Excerpt: as §1, §2

KRAS WT = target: T3, KRAS WT (Homo sapiens, UniProt P01116); experiment: HTRF assay of wildtype K-Ras interaction with SOS1 (PPI-HTRF); details: HTRF, 5 nM KRAS WT; read-out: PPI-HTRF-5 nM KRAS WT
T3 construct: made in house; host or cells: E. coli, e.g. BL21 (DE3)
T3 sequence (P01116 1-188 isoform P01116-2): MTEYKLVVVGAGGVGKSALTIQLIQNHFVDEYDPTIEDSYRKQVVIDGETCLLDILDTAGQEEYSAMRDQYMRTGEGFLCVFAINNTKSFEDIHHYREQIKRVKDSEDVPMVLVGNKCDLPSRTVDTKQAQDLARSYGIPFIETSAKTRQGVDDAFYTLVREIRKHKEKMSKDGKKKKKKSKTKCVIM
Excerpt: as §1, §2

T1 sequence (P01116 1-188 isoform P01116-2 G12D): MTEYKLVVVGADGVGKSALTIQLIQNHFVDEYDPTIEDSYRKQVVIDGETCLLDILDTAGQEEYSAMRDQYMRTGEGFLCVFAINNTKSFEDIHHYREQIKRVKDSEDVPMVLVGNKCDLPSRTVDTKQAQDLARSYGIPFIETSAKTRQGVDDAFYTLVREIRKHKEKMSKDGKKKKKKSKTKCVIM

Q: With `N#Cc1c(N)sc2c(F)ccc(-c3c(Cl)cc4c(N5CC[C@]6(CCN6)C5)nc(OC[C@@]56CCCN5C[C@H](F)C6)nc4c3F)c12` [Compound 285, 2-amino-4-(6-chloro-8-fluoro-2-(((2R,7aS)-2-fluorotetrahydro-1H-pyrrolizin-7a(5H)-yl)methoxy)-4-((R)-1,6-diazaspiro[3.4]octan-6-yl)quinazolin-7-yl)-7-fluorobenzo[b]thiophene-3-carbonitrile] as the compound, how does the IC50 (KRAS G12D) read?
A: Its IC50 is under 5 µM.

Q: And the IC50 (KRAS G12S)?
A: Its IC50 is under 5 µM.

Q: And the IC50 (KRAS WT)?
A: The IC50 was under 5 µM.

Q: With `C[C@H](Oc1nc(N2CC[C@@]3(CCN3C(=O)n3cncn3)C2)c2cc(Cl)c(-c3ccc(F)c4sc(N)c(C#N)c34)c(F)c2n1)[C@@H]1CCCN1C` (single isomer, unassigned) [Compound 301] as the compound, how does the IC50 (KRAS G12S) read?
A: The IC50 was under 5 µM.

Q: For `N#Cc1c(N)sc2c(F)ccc(-c3c(Cl)cc4c(N5CCCC6(CCCN6)C5)nc(OC[C@@]56CCCN5C[C@H](F)C6)nc4c3F)c12` (stereo partly drawn) [Compound 252, 2-amino-4-(6-chloro-8-fluoro-2-(((2R,7aS)-2-fluorotetrahydro-1H-pyrrolizin-7a(5H)-yl)methoxy)-4-(1,7-diazaspiro[4.5]decan-7-yl)quinazolin-7-yl)-7-fluorobenzo[b]thiophene-3-carbonitrile], which IC50 (KRAS G12S) is on record?
A: The IC50 was under 5 µM.

Q: `N#CCC1CN(c2nc(OC[C@@]34CCCN3C[C@H](F)C4)nc3c(F)c(-c4ccc(F)c5sc(N)c(C#N)c45)c(Cl)cc23)CC12CCN2C(=O)n1cnc(C(F)F)n1` (stereo partly drawn) [Compound 330, (4R)-2-amino-4-(6-chloro-4-(8-(cyanomethyl)-1-(3-(difluoromethyl)-1H-1,2,4-triazole-1-carbonyl)-1,6-diazaspiro[3.4]octan-6-yl)-8-fluoro-2-(((2R,7aS)-2-fluorotetrahydro-1H-pyrrolizin-7a(5H)-yl)methoxy)quinazolin-7-yl)-7-fluorobenzo[b]thiophene-3-carbonitrile] was tested. Which IC50 (KRAS G12S) did it give?
A: The IC50 was under 5 µM.

Q: Which IC50 (KRAS G12S) does the source give for `Nc1nc2c(-c3c(Cl)cc4c(N5CCCC6(CCN6)C5)nc(OC[C@@]56CCCN5C[C@H](F)C6)nc4c3F)ccc(F)c2s1` (stereo partly drawn) [Compound 209, 4-(6-chloro-8-fluoro-2-(((2R,7aS)-2-fluorotetrahydro-1H-pyrrolizin-7a(5H)-yl)methoxy)-4-(1,6-diazaspiro[3.5]nonan-6-yl)quinazolin-7-yl)-7-fluorobenzo[d]thiazol-2-amine] here?
A: The IC50 was under 5 µM.

Q: For `Cc1ncn(C(=O)N2CC[C@@]23CCN(c2nc(OC[C@@]45CCCN4C[C@H](F)C5)nc4c(F)c(-c5ccc(F)c6sc(N)c(C#N)c56)c(Cl)cc24)C3)n1` [Compound 339, 2-amino-4-(6-chloro-8-fluoro-2-(((2R,7aS)-2-fluorotetrahydro-1H-pyrrolizin-7a(5H)-yl)methoxy)-4-((R)-1-(3-methyl-1H-1,2,4-triazole-1-carbonyl)-1,6-diazaspiro[3.4]octan-6-yl)quinazolin-7-yl)-7-fluorobenzo[b]thiophene-3-carbonitrile], which IC50 (KRAS G12S) is on record?
A: The IC50 was under 5 µM.

Q: How did the IC50 (KRAS G12S) turn out when `N#Cc1c(N)sc2c(F)ccc(-c3c(Cl)cc4c(N5CC[C@@]6(CCN6C(=O)n6cncn6)C5)nc(OC[C@@]56CCCN5C[C@H](F)C6)nc4c3F)c12` (single isomer, unassigned) [Compound 247] was run?
A: Its IC50 is under 5 µM.

Q: With `N#Cc1c(N)sc2c(F)ccc(-c3c(Cl)cc4c(N5CCC6(CCN6C(=O)n6cncn6)C5)nc(OC[C@@]56CCCN5C[C@H](F)C6)nc4c3F)c12` (stereo partly drawn) [Compound 272, 4-(4-(1-(1H-1,2,4-triazole-1-carbonyl)-1,6-diazaspiro[3.4]octan-6-yl)-6-chloro-8-fluoro-2-(((2R,7aS)-2-fluorotetrahydro-1H-pyrrolizin-7a(5H)-yl)methoxy)quinazolin-7-yl)-2-amino-7-fluorobenzo[b]thiophene-3-carbonitrile] as the compound, how does the IC50 (KRAS G12S) read?
A: The IC50 was under 5 µM.

Q: For `N#Cc1c(N)sc2c(F)ccc(-c3c(Cl)cc4c(N5CCCC6(CCCN6C(=O)n6cncn6)C5)nc(OC[C@@]56CCCN5C[C@H](F)C6)nc4c3F)c12` (stereo partly drawn) [Compound 246, 4-(4-(1-(1H-1,2,4-triazole-1-carbonyl)-1,7-diazaspiro[4.5]decan-7-yl)-6-chloro-8-fluoro-2-(((2R,7aS)-2-fluorotetrahydro-1H-pyrrolizin-7a(5H)-yl)methoxy)quinazolin-7-yl)-2-amino-7-fluorobenzo[b]thiophene-3-carbonitrile], which IC50 (KRAS G12S) is on record?
A: Its IC50 is under 5 µM.

Q: With `N#Cc1c(N)sc2c(F)ccc(-c3c(Cl)cc4c(N5CCCC6(CCN6)C5)nc(OC[C@@]56CCCN5C[C@H](F)C6)nc4c3F)c12` (stereo partly drawn) [Compound 260, 2-amino-4-(6-chloro-8-fluoro-2-(((2R,7aS)-2-fluorotetrahydro-1H-pyrrolizin-7a(5H)-yl)methoxy)-4-(1,6-diazaspiro[3.5]nonan-6-yl)quinazolin-7-yl)-7-fluorobenzo[b]thiophene-3-carbonitrile] as the compound, how does the IC50 (KRAS G12S) read?
A: The IC50 was under 5 µM.

Q: For `N#Cc1c(N)sc2c(F)ccc(-c3c(Cl)cc4c(N5CC6(CCN6C(=O)n6cncn6)CC5COC(F)F)nc(OC[C@@]56CCCN5C[C@H](F)C6)nc4c3F)c12` (stereo partly drawn) [Compound 348, 2-amino-4-(6-chloro-4-(7-((difluoromethoxy)methyl)-1-(1H-1,2,4-triazole-1-carbonyl)-1,6-diazaspiro[3.4]octan-6-yl)-8-fluoro-2-(((2R,7aS)-2-fluorotetrahydro-1H-pyrrolizin-7a(5H)-yl)methoxy)quinazolin-7-yl)-7-fluorobenzo[b]thiophene-3-carbonitrile], which IC50 (KRAS G12S) is on record?
A: The IC50 was under 5 µM.

Q: Which IC50 (KRAS G12S) does the source give for `N#Cc1c(N)sc2c(F)ccc(-c3c(Cl)cc4c(N5CCCCC6(CCCN6C(=O)n6cncn6)C5)nc(OC[C@@]56CCCN5C[C@H](F)C6)nc4c3F)c12` (stereo partly drawn) [Compound 231, 4-(4-(1-(1H-1,2,4-triazole-1-carbonyl)-1,7-diazaspiro[4.6]undecan-7-yl)-6-chloro-8-fluoro-2-(((2R,7aS)-2-fluorotetrahydro-1H-pyrrolizin-7a(5H)-yl)methoxy)quinazolin-7-yl)-2-amino-7-fluorobenzo[b]thiophene-3-carbonitrile] here?
A: Its IC50 is under 5 µM.

Q: `Cc1ncn(C(=O)N2CC[C@]23CCN(c2nc(OC[C@@]45CCCN4C[C@H](F)C5)nc4c(F)c(-c5ccc(F)c6sc(N)c(C#N)c56)c(Cl)cc24)C3)n1` [Compound 250, 2-amino-4-(6-chloro-8-fluoro-2-(((2R,7aS)-2-fluorotetrahydro-1H-pyrrolizin-7a(5H)-yl)methoxy)-4-((S)-1-(3-methyl-1H-1,2,4-triazole-1-carbonyl)-1,6-diazaspiro[3.4]octan-6-yl)quinazolin-7-yl)-7-fluorobenzo[b]thiophene-3-carbonitrile] was tested. Which IC50 (KRAS G12S) did it give?
A: The IC50 was under 5 µM.

Q: `Nc1nc2c(-c3c(Cl)cc4c(N5CC6(CNCCN6)C5)nc(OC[C@@]56CCCN5C[C@H](F)C6)nc4c3F)ccc(F)c2s1` [Compound 251, 4-(6-chloro-8-fluoro-2-(((2R,7aS)-2-fluorotetrahydro-1H-pyrrolizin-7a(5H)-yl)methoxy)-4-(2,5,8-triazaspiro[3.5]nonan-2-yl)quinazolin-7-yl)-7-fluorobenzo[d]thiazol-2-amine] was tested. Which IC50 (KRAS G12D) did it give?
A: The IC50 was under 5 µM.

Q: What about the IC50 (KRAS G12S) of the same compound?
A: The IC50 was over 5 µM.

Q: How did the IC50 (KRAS G12D) turn out when `Nc1nc2c(-c3c(Cl)cc4c(N5CC6(CCCCN6)C5)nc(OCC56CCCN5C[C@H](F)C6)nc4c3F)ccc(F)c2s1` (stereo partly drawn) [Compound 220, 4-(6-chloro-8-fluoro-2-(((2R)-2-fluorotetrahydro-1H-pyrrolizin-7a(5H)-yl)methoxy)-4-(2,5-diazaspiro[3.5]nonan-2-yl)quinazolin-7-yl)-7-fluorobenzo[d]thiazol-2-amine] was run?
A: The IC50 was under 5 µM.

Q: And the IC50 (KRAS WT)?
A: The IC50 was under 5 µM.
